Test results: the CheMixHub ionic liquid set
± gives the uncertainty stated by the source.

Test: xn = mol fraction of the nth substance listed

With `CC[N+](CC)(CC)CCCS(=O)(=O)O.F[B-](F)(F)F` + O as the compound, how does the electrical conductivity (298 K, 101 kPa, x1 = 0.00077) read?
Its electrical conductivity is 1.03 S/m.

And the electrical conductivity (298 K, 101 kPa, x1 = 0.002)?
The electrical conductivity was 1.68 S/m.

What about the electrical conductivity (298 K, 101 kPa, x1 = 0.01495) of the same compound?
The electrical conductivity was 2.42 S/m.

What about the electrical conductivity (298 K, 101 kPa, x1 = 0.02005) of the same compound?
Its electrical conductivity is 2.22 S/m.

Which viscosity (298.15 K, 101 kPa, x2 = 0.6088) does the source give for `CC[NH2+]CC.O=S(=O)([O-])O` + O here?
Its viscosity is 32.1 ± 2.2 mPa·s.

Which results are given for `CCn1cc[nH+]c1.O=S(=O)([N-]S(=O)(=O)C(F)(F)F)C(F)(F)F` + O?
viscosity (297.55 K, 101 kPa, x1 = 0.5): 15.8 ± 0.5 mPa·s; viscosity (297.55 K, 101 kPa, x1 = 0.889): 44.9 ± 1.5 mPa·s; electrical conductivity (303.15 K, 100 kPa, x1 = 0.366): 1.77 ± 0.11 S/m; electrical conductivity (303.15 K, 100 kPa, x1 = 0.403): 1.6 ± 0.096 S/m; electrical conductivity (303.15 K, 100 kPa, x1 = 0.427): 1.53 ± 0.092 S/m; electrical conductivity (303.15 K, 100 kPa, x1 = 0.455): 1.44 ± 0.086 S/m; electrical conductivity (303.15 K, 100 kPa, x1 = 0.491): 1.35 ± 0.081 S/m; electrical conductivity (303.15 K, 100 kPa, x1 = 0.519): 1.24 ± 0.075 S/m; electrical conductivity (303.15 K, 100 kPa, x1 = 0.554): 1.15 ± 0.069 S/m; electrical conductivity (303.15 K, 100 kPa, x1 = 0.592): 1.05 ± 0.063 S/m; electrical conductivity (303.15 K, 100 kPa, x1 = 0.634): 0.948 ± 0.057 S/m; electrical conductivity (303.15 K, 100 kPa, x1 = 0.684): 0.845 ± 0.051 S/m; electrical conductivity (303.15 K, 100 kPa, x1 = 0.712): 0.785 ± 0.047 S/m; electrical conductivity (303.15 K, 100 kPa, x1 = 0.743): 0.729 ± 0.044 S/m; electrical conductivity (303.15 K, 100 kPa, x1 = 0.776): 0.672 ± 0.04 S/m; electrical conductivity (303.15 K, 100 kPa, x1 = 0.811): 0.619 ± 0.037 S/m; electrical conductivity (303.15 K, 100 kPa, x1 = 0.851): 0.57 ± 0.034 S/m; electrical conductivity (303.15 K, 100 kPa, x1 = 0.896): 0.516 ± 0.031 S/m; electrical conductivity (303.15 K, 100 kPa, x1 = 0.943): 0.464 ± 0.028 S/m; electrical conductivity (303.15 K, 100 kPa, x2 = 0.003): 0.424 ± 0.025 S/m

Which viscosity (298.15 K, 101 kPa, x1 = 0.1991) does the source give for `CS(=O)(=O)[O-].C[N+](C)(CCO)CCO` + O here?
Its viscosity is 14.87 ± 0.97 mPa·s.

And the viscosity (303.15 K, 101 kPa, x1 = 0.2989)?
The viscosity was 29.9 ± 1.9 mPa·s.

What about the viscosity (303.15 K, 101 kPa, x1 = 0.6984) of the same compound?
The viscosity was 333 ± 28 mPa·s.

What about the viscosity (313.15 K, 101 kPa, x1 = 0.4797) of the same compound?
Its viscosity is 62.4 ± 3.9 mPa·s.

And the viscosity (313.15 K, 101 kPa, x1 = 0.6984)?
Its viscosity is 186 ± 14 mPa·s.

And the viscosity (318.15 K, 101 kPa, x1 = 0.2989)?
The viscosity was 17.3 ± 1.1 mPa·s.

What about the viscosity (318.15 K, 101 kPa, x1 = 0.4797) of the same compound?
Its viscosity is 50.1 ± 3.1 mPa·s.

What about the viscosity (318.15 K, 101 kPa, x1 = 1) of the same compound?
The viscosity was 378 ± 33 mPa·s.

What about the viscosity (323.15 K, 101 kPa, x1 = 0.1991) of the same compound?
The viscosity was 6.85 ± 0.44 mPa·s.

What about the viscosity (323.15 K, 101 kPa, x1 = 0.4797) of the same compound?
Its viscosity is 40.9 ± 2.6 mPa·s.

What about the viscosity (323.15 K, 101 kPa, x1 = 0.6984) of the same compound?
The viscosity was 112.1 ± 7.4 mPa·s.

What about the viscosity (323.15 K, 101 kPa, x1 = 1) of the same compound?
The viscosity was 282 ± 23 mPa·s.
